Like-named read-outs stand apart in the source and are kept apart here. Bridge positions count the residues as written; N and C are the ends. Ends that are not written are not given here. Peptide text beside a SMILES is read from it.
Legend:
[1] = system: Classical pathway C5b deposition; test: Classical pathway C5b (neo-epitope) deposition ELISA, SVAR kit; format: biochemical, human; conditions: chemFE peptides, Example 10; result in words
Text: (§1) To elucidate the functional consequences of the knob domain peptides binding to human C5, we performed complement activation assays using the SVAR complement activation ELISA which measured CP (Classical Pathway) and AP (Alternative Pathway) activation in human serum, through formation of the C5b neo-epitope. We also developed orthogonal ELISA assays which measured total complement and AP specific mediated C3b and MAC (Membrane Attack Complex) deposition. For all activation conditions, we also tracked C5a release via ELISA.
(§2) For the C5b ELISA, assays were run using the CP and AP Complement functional ELISA kits (SVAR), as per the manufacturer's protocol. For sample preparation: serum was diluted as per the respective protocol for the CP and AP assays. Titrations of peptides were prepared and allowed to incubate for 15 minutes at room temperature, prior to plating.
(§3) Functional activity of chemically derived knob domain peptides was confirmed in a complement activation ELISAs which measured inhibition of C5b neoepitope deposition.
(§4) Finally, we tested our constructs in AP and CP complement activation ELISAs, which measured C5b neoepitope deposition.
(§5) Complement ELISA: assays were run using the CP and AP Complement functional ELISA kits (SVAR, COMPL 300 RUO), as per the manufacturer's protocol. For sample preparation, serum was diluted as per the respective protocol for the CP and AP assays; serial dilutions of peptides were prepared and allowed to incubate with serum for 15 minutes at room temperature, prior to plating.

[2] = system: Alternative pathway C5b deposition; test: Alternative pathway C5b (neo-epitope) deposition ELISA, SVAR kit; format: biochemical, human; conditions: chemFE peptides, Example 10; result in words
Text: as §1, §2, §3, §4, §5

C5 [3] = biological target: T1, C5 (Homo sapiens, UniProt P01031); test: Biacore multi-cycle kinetics on human C5; format: binding; conditions: for mean stoichiometric ratio: measured Rmax divided by theoretical Rmax
T1 sequence (P01031 19-1676): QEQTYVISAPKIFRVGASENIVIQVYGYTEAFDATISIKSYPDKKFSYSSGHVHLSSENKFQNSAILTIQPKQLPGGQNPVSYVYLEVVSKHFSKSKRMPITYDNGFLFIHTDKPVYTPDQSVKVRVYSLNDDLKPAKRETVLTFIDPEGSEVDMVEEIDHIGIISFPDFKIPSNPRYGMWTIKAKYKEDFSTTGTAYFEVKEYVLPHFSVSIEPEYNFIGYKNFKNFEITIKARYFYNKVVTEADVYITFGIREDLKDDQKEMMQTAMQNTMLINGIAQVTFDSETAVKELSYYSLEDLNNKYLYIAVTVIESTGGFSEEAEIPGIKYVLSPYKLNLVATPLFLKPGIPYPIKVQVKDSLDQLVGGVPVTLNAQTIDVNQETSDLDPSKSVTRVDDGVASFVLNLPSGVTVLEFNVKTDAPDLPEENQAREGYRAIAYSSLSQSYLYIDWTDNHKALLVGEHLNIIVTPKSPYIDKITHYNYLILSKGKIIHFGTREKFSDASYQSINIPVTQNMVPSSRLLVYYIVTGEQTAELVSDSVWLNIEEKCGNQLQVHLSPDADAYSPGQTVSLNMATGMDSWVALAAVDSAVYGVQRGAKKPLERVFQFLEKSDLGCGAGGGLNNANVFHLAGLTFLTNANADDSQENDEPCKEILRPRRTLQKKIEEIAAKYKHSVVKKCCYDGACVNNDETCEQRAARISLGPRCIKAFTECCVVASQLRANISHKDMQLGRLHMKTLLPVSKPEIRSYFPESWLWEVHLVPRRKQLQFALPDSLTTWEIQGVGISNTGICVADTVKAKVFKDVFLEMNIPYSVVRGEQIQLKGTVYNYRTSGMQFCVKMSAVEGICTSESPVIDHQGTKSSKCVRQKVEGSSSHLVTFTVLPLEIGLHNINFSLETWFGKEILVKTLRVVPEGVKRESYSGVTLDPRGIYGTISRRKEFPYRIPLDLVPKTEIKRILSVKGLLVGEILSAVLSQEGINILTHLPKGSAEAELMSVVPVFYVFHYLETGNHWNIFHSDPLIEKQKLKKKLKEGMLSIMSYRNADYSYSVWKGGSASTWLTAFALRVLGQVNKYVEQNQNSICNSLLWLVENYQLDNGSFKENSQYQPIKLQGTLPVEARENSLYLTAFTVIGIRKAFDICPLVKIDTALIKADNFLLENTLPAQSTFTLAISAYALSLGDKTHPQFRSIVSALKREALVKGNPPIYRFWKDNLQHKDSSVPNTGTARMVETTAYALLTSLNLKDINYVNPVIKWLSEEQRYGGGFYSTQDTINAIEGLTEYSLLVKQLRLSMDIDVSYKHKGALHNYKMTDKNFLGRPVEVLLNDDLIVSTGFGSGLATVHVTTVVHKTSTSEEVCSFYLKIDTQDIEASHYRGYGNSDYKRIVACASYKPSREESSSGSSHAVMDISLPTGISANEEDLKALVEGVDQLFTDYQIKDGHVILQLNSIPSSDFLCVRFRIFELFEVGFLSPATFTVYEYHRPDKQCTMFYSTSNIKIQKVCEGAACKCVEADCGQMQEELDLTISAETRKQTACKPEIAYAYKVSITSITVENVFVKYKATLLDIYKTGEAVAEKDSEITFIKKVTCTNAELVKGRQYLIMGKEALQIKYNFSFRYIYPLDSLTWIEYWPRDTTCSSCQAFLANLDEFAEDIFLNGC
Procedure: Binding of knob domain peptides to human C5 was measured by SPR, using a multi-cycle kinetics method as follows:
(§6) Kinetics were measured using a Biacore 8K (GE Healthcare) with a CM5 chip, which was prepared as follows: EDC/NHS was mixed at 1:1 ratio (flow rate, 10 μL/min; contact time, 30 seconds), human C5 protein at 1 μg/mL in pH 4.5 sodium-acetate buffer, were injected over flow cell one only (flow rate, 10 μL/min; contact time, 60 seconds). Final immobilization levels in the range of 2000-3000 response units (RU) were obtained, to yield theoretical Rmax values of ˜50-60 RU. Serial dilutions of peptide were prepared in HBS-EP buffer and injected (flow rate, 30 μL/min; contact time, 240 seconds; dissociation time, 6000 seconds). After each injection, the surface was regenerated with two sequential injections of 2M MgCl2 (flow rate, […]; contact time, 30 seconds). Binding to the reference surface was subtracted, and the data were fitted to a single site binding model, using Biacore evaluation software.

rabbit erythrocytes = test: Alternative pathway haemolysis assay; format: cell-based; conditions: normal human sera; result in words
Procedure: Haemolysis assays: For AP, 50 μL of 24% normal human sera (Complement Technology), 50 of 20 mM MgEGTA (Complement Technology), and 48 μL of GVB0 buffer (0.1% gelatin, […], 145 mM NaCl, 0.025% NaN3, pH 7.3, Complement Technology) were aliquoted into a single well of a 96-well tissue culture plate (USA Scientific) then mixed with 2 μL of inhibitors serially diluted in DMSO. Following equilibration for 15 minutes at room temperature, 50 μL of rabbit erythrocytes (Complement Technology), at 2.5×10^7 per well, were added to the plates, which were then incubated at 37° C. for 30 minutes. Plates were centrifuged at 1,000×g for 3 min and 100 μL of supernatant was collected, transferred to another 96-well tissue culture treated plate, and absorbance was measured at 412 nm. For CP, […], 48 μL of GVB++ buffer (0.1% gelatin, 5 mM Veronal, 145 mM NaCl, 0.025% NaN3, pH 7.3 with 0.15 mM CaCl2 and 0.5 mM MgCl2, Complement Technology) and 2 μL of inhibitors serially diluted in DMSO were aliquoted into a single well and equilibrated as described. Next, 100 μL of antibody-sensitized sheep red blood cells (Complement Technology) at 5×10^7 per well were added to the plate, which was then incubated at 37° C. for 1 hour. Samples were subsequently processed as described.

rat C5 protein = rat C5 protein (Rattus norvegicus, UniProt P08650); test: Biacore kinetics on rat C5 (cross-reactivity); format: binding; conditions: SPR
Sequence of rat C5 protein (P08650 19-1681): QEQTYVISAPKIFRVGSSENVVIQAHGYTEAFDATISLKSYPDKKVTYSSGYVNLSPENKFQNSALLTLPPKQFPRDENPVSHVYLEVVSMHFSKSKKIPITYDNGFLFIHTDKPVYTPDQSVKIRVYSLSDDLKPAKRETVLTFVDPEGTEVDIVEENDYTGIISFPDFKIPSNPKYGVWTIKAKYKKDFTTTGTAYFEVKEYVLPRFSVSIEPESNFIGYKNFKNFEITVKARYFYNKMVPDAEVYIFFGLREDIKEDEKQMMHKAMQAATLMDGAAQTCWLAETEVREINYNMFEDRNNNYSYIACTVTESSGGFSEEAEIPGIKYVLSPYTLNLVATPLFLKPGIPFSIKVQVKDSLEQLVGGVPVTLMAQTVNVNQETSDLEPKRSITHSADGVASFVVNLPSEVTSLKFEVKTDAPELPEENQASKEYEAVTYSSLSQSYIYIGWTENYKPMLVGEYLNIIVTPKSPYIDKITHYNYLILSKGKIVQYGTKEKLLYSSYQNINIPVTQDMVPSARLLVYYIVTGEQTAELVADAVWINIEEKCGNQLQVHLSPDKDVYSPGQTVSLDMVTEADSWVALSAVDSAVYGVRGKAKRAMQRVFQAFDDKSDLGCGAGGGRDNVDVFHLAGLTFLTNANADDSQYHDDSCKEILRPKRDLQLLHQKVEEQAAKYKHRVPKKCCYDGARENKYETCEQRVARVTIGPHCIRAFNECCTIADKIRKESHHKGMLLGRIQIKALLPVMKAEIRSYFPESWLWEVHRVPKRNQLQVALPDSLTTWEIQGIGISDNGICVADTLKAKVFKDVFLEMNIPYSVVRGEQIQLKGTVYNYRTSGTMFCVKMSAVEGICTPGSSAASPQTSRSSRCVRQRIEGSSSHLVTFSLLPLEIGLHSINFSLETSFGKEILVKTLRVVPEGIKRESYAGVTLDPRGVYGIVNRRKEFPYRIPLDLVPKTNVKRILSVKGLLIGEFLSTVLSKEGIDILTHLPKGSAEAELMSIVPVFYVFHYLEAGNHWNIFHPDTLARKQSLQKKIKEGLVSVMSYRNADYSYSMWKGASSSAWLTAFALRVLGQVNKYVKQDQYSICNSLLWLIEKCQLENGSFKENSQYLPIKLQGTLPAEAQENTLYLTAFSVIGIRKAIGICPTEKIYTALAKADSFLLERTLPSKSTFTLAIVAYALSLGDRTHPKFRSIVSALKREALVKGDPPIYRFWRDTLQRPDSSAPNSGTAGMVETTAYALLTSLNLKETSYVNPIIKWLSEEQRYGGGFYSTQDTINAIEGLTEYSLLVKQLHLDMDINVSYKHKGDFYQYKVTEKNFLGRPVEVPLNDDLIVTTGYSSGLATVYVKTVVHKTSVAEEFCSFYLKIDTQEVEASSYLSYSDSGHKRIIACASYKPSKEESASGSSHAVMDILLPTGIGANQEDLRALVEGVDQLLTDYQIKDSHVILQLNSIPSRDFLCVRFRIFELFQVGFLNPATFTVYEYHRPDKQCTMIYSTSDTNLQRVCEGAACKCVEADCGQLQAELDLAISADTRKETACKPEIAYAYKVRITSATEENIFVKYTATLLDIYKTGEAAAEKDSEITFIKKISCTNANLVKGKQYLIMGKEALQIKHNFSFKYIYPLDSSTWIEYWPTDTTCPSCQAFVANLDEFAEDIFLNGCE
Procedure: as §6, with “rat” for “human”, “ug/mL” for “μg/mL”

C5 [4] = biological target: T1, C5; test: Biacore (SPR) single-cycle kinetics on immobilised C5; format: binding; conditions: for kd: chemically derived knob domain peptides, n = 1; for kon: read-out: ka
Procedure: Binding to C5 was measured using surface plasmon resonance (SPR) single-cycle kinetics as described below.
Biacore single-cycle kinetics. Using a Biacore 8K (GE Healthcare), C5 was immobilized on a CM5 chip by amine coupling. Flow cells were activated using EDC/NHS (flow rate, 10 μL/min; contact time, 30 s). C5, at 1 μg/mL in pH 4.5 Sodium-acetate buffer, was immobilized on flow cell two only (flow rate, 10 μL/min; contact time, 420 s). Finally, ethanolamine was applied to both flow cells (flow rate, 10 μL/min; contact time, 420 s). A final immobilization level of approximately 2,000 response units was obtained.
Single-cycle kinetics were measured using titrations in HBS-EP buffer. A high flow rate of 40 μL/min was used, with a contact time of 230 s and a dissociation time of 900 s. Binding to the reference surface was subtracted, and the data were fitted to a single-site binding model using Biacore evaluation software.
We measured individual rate constants (kon and koff) and equilibrium dissociation constants (KD) for knob domain peptides binding to C5 by the Biacore single-cycle kinetics method described above.
We used SPR single cycle kinetics to measure binding to human C5 protein.

[5] = read-out: mean Koff, multi-cycle kinetics, n = 3 experiments
[6] = read-out: mean Kon, multi-cycle kinetics, n = 3 experiments

Compound	inhibition of CP, C5b deposition [1]	inhibition of AP, C5b deposition [2]	mean stoichiometric ratio (C5 [3]; n = 3 experiments)	koff (C5 [3]; multi-cycle kinetics, n = 3 experiments, read-out: mean Koff) [s⁻¹]	kon (C5 [3]; multi-cycle kinetics, n = 3 experiments, read-out: mean Kon) [M⁻¹ s⁻¹]	inhibition of haemolysis, AP (rabbit erythrocytes)	koff (C5 [3]; [5]) [s⁻¹]	kon (C5 [3]; [6]) [M⁻¹ s⁻¹]	cross reactivity with rat C5 protein (rat C5 protein)	cross reactivity with rat C5 protein (rat C5 protein; listed as K8chem)	Kd (C5 [4]) [nM]	kd (C5 [4]) [s⁻¹]	kon (C5 [4]) [M⁻¹ s⁻¹]	Kd (C5 [3]) [nM]	fold lower affinity (relative to K149chemSD-A) (C5 [3])	fold more potent than K149B (C5 [4]; site directed disulphide forms of K149) [fold]	mean stoichiometric ratio (C5 [3]; n = 3 experiments, listed as K149chemSD-A)	binding to C5 (C5 [3]; after reduction and capping of cysteines with iodoacetamide (loss of disulphide bonds))	binding to human C5 (C5 [3]; chemical knob domains and variants, result in words)	Kd (C5 [3]; multi-cycle kinetics, n = 3 experiments, read-out: mean KD) [nM]
CC[C@H](C)[C@@H]1NC(=O)[C@H](C)NC(=O)[C@H](C(C)C)NC(=O)CNC(=O)[C@@H]2CSSC[C@@H](C(=O)NCC(=O)N[C@@H](Cc3c[nH]cn3)C(=O)N[C@@H](Cc3ccccc3)C(=O)N[C@@H](CC(C)C)C(=O)N[C@@H](CC(N)=O)C(=O)N[C@@H](CO)C(=O)NCC(=O)N3CCC[C@H]3C(=O)N[C@@H](CC(N)=O)C(=O)N[C@H](C(=O)N[C@@H](CO)C(=O)N3CCC[C@H]3C(=O)N[C@@H](Cc3ccc(O)cc3)C(=O)N[C@H](C(=O)N[C@@H](CO)C(=O)N[C@H](C(=O)O)[C@@H](C)O)C(C)C)[C@@H](C)CC)NC(=O)CNC(=O)[C@H](Cc3c[nH]c4ccccc34)NC(=O)[C@H](CCCNC(=N)N)NC(=O)CNC(=O)[C@H](CSSC[C@H](NC(=O)[C@@H](N)[C@@H](C)O)C(=O)N3CCC[C@H]3C(=O)N[C@@H](CCC(=O)O)C(=O)NCC(=O)N[C@@H](Cc3c[nH]c4ccccc34)C(=O)N[C@@H](CO)C(=O)N[C@@H](CCC(=O)O)C(=O)N2)NC(=O)[C@H](CCC(=O)O)NC(=O)[C@H](Cc2ccc(O)cc2)NC(=O)CNC(=O)[C@H](Cc2ccc(O)cc2)NC1=O [K92chemFE] (H-TCPEGWSECGVAIYGYECGRWGCGHFLNSGPNISPYVST-OH; disulfide 2-18, 9-23)	modest, dose dependent enhancement	partially inhibited	0.40	0.000101	283000	active solely in the AP-driven haemolysis assay														
VCPDGFNWGYGCAAGSSRFCTRHDWCCYDERADSHTYGFCTGNRV-OH (disulfide 2-26, 12-40, 20-27) [K8chemFE]	partial inhibitor	partial inhibitor	0.25				0.000385	70500	tightly bound	cross reactive										
CSCC[C@@H]1NC(=O)[C@@H]2CCCN2C(=O)[C@@H]2CSSC[C@H](NC(=O)[C@@H](N)CO)C(=O)N3CCC[C@H]3C(=O)N[C@@H](CC(=O)O)C(=O)NCC(=O)N[C@@H](Cc3ccccc3)C(=O)N[C@@H](CO)C(=O)N[C@@H](Cc3ccc(O)cc3)C(=O)N[C@@H](CCCNC(=N)N)C(=O)N[C@@H](CO)C(=O)N[C@@H](Cc3c[nH]c4ccccc34)C(=O)N[C@@H](CC(=O)O)C(=O)N[C@@H](CC(=O)O)C(=O)N[C@@H](Cc3ccccc3)C(=O)N[C@@H](CSSC[C@@H](C(=O)N[C@@H](CC(C)C)C(=O)N[C@@H](C)C(=O)N3CCC[C@H]3C(=O)N[C@@H](CCCNC(=N)N)C(=O)N[C@@H](CC(N)=O)C(=O)O)NC(=O)[C@H](CCCNC(=N)N)NC(=O)CNC(=O)[C@H](C(C)C)NC1=O)C(=O)N2 [K149B] (H-SCPDGFSYRSWDDFCCPMVGRCLAPRN-OH; disulfide 2-16, 15-22; N-terminus assumed)			0.81				0.00417	15600			246	0.00732	29700	269	approximately 35 fold					
CSCC[C@@H]1NC(=O)[C@@H]2CCCN2C(=O)[C@@H](NC(=O)[C@@H]2CSSC[C@H](NC(=O)[C@@H](N)CO)C(=O)N3CCC[C@H]3C(=O)N[C@@H](CC(=O)O)C(=O)NCC(=O)N[C@@H](Cc3ccccc3)C(=O)N[C@@H](CO)C(=O)N[C@@H](Cc3ccc(O)cc3)C(=O)N[C@@H](CCCNC(=N)N)C(=O)N[C@@H](CO)C(=O)N[C@@H](Cc3c[nH]c4ccccc34)C(=O)N[C@@H](CC(=O)O)C(=O)N[C@@H](CC(=O)O)C(=O)N[C@@H](Cc3ccccc3)C(=O)N2)CSSC[C@@H](C(=O)N[C@@H](CC(C)C)C(=O)N[C@@H](C)C(=O)N2CCC[C@H]2C(=O)N[C@@H](CCCNC(=N)N)C(=O)N[C@@H](CC(N)=O)C(=O)O)NC(=O)[C@H](CCCNC(=N)N)NC(=O)CNC(=O)[C@H](C(C)C)NC1=O (H-SCPDGFSYRSWDDFCCPMVGRCLAPRN-OH; disulfide 2-15, 16-22; N-terminus assumed)							0.00484	713000			6.17	0.00723	1.17e+06	7.31		41	0.82			
CSCC[C@@H]1NC(=O)[C@@H]2CCCN2C(=O)[C@@H](NC(=O)[C@@H]2CSSC[C@H](NC(=O)[C@@H](N)CO)C(=O)N3CCC[C@H]3C(=O)N[C@@H](CC(=O)O)C(=O)NCC(=O)N[C@@H](Cc3ccccc3)C(=O)N[C@@H](CO)C(=O)N[C@@H](Cc3ccc(O)cc3)C(=O)N[C@@H](CCCNC(=N)N)C(=O)N[C@@H](CO)C(=O)N[C@@H](Cc3c[nH]c4ccccc34)C(=O)N[C@@H](CC(=O)O)C(=O)N[C@@H](CC(=O)O)C(=O)N[C@@H](Cc3ccccc3)C(=O)N2)CSSC[C@@H](C(=O)N[C@@H](CC(C)C)C(=O)N[C@@H](C)C(=O)N2CCC[C@H]2C(=O)N[C@@H](CCCNC(=N)N)C(=O)N[C@@H](CC(N)=O)C(=O)O)NC(=O)[C@H](CCCNC(=N)N)NC(=O)CNC(=O)[C@H](C(C)C)NC1=O [K149chemFE] (H-SCPDGFSYRSWDDFCCPMVGRCLAPRN-OH; disulfide 2-15, 16-22 (inferred); N-terminus assumed)	non-functional, silent binder	non-functional, silent binder	0.85															entirely abrogated binding	equal affinity	5.57

From patent publication US20240024520A1, “AUTONOMOUS KNOB DOMAIN PEPTIDES” (UCB BIOPHARMA SRL, priority 2020, published 2024)
